Data as given in the NIST ThermoML archive (doi:10.1016/j.jct.2015.08.014).
± gives the expanded uncertainty stated by the source.

Test: xn = mol fraction of the nth substance listed
Settings: 293.15 K, 100 kPa, Liquid, Alternating current cell with electrodes

CCCC[N+]1(C)CCCC1.N#CN=C=[N-] [1-butyl-1-methylpyrrolidinium dicyanamide] + O=C1CCCO1
Settings | electrical conductivity [S/m]
Frequency=0.0015 MHz, x1 = 0.3029 | 2.29 ± 0.023
Frequency=0.0015 MHz, x1 = 0.3845 | 2.112 ± 0.021
Frequency=0.0015 MHz, x1 = 0.4985 | 1.84 ± 0.019
Frequency=0.0015 MHz, x1 = 0.6954 | 1.46 ± 0.015
Frequency=0.0015 MHz, x1 = 0.9013 | 1.19 ± 0.012
Frequency=0.0015 MHz, x1 = 1 | 1.123 ± 0.011
Frequency=0.002 MHz, x1 = 0.0463 | 1.37 ± 0.024
Frequency=0.002 MHz, x1 = 0.0987 | 2.04 ± 0.025
Frequency=0.002 MHz, x1 = 0.1449 | 2.31 ± 0.024
Frequency=0.002 MHz, x1 = 0.1859 | 2.443 ± 0.024
Frequency=0.002 MHz, x1 = 0.2493 | 2.37 ± 0.024
Frequency=0.002 MHz, x1 = 0.3029 | 2.29 ± 0.023
Frequency=0.002 MHz, x1 = 0.3845 | 2.113 ± 0.021
Frequency=0.002 MHz, x1 = 0.4985 | 1.84 ± 0.019
Frequency=0.002 MHz, x1 = 0.6954 | 1.46 ± 0.015
Frequency=0.002 MHz, x1 = 0.9013 | 1.19 ± 0.012
Frequency=0.002 MHz, x1 = 1 | 1.123 ± 0.011
Frequency=0.0025 MHz, x1 = 0.0463 | 1.37 ± 0.024
Frequency=0.0025 MHz, x1 = 0.0987 | 2.04 ± 0.025
Frequency=0.0025 MHz, x1 = 0.1449 | 2.31 ± 0.024
Frequency=0.0025 MHz, x1 = 0.1859 | 2.445 ± 0.024
Frequency=0.0025 MHz, x1 = 0.2493 | 2.37 ± 0.024
Frequency=0.0025 MHz, x1 = 0.3029 | 2.29 ± 0.023
Frequency=0.0025 MHz, x1 = 0.3845 | 2.114 ± 0.021
Frequency=0.0025 MHz, x1 = 0.4985 | 1.84 ± 0.019
Frequency=0.0025 MHz, x1 = 0.6954 | 1.46 ± 0.015
Frequency=0.0025 MHz, x1 = 0.9013 | 1.19 ± 0.012
Frequency=0.0025 MHz, x1 = 1 | 1.123 ± 0.011
Frequency=0.003 MHz, x1 = 0.0463 | 1.37 ± 0.024
Frequency=0.003 MHz, x1 = 0.0987 | 2.05 ± 0.025
Frequency=0.003 MHz, x1 = 0.1449 | 2.31 ± 0.024
Frequency=0.003 MHz, x1 = 0.1859 | 2.45 ± 0.025
Frequency=0.003 MHz, x1 = 0.2493 | 2.37 ± 0.024
Frequency=0.003 MHz, x1 = 0.3029 | 2.29 ± 0.023
Frequency=0.003 MHz, x1 = 0.3845 | 2.114 ± 0.021
Frequency=0.003 MHz, x1 = 0.4985 | 1.84 ± 0.019
Frequency=0.003 MHz, x1 = 0.6954 | 1.46 ± 0.015
Frequency=0.003 MHz, x1 = 0.9013 | 1.19 ± 0.012
Frequency=0.003 MHz, x1 = 1 | 1.123 ± 0.011
Frequency=0.00347222 MHz, x1 = 0.0463 | 1.37 ± 0.024
Frequency=0.00347222 MHz, x1 = 0.0987 | 2.05 ± 0.025
Frequency=0.00347222 MHz, x1 = 0.1449 | 2.31 ± 0.024
Frequency=0.00347222 MHz, x1 = 0.1859 | 2.45 ± 0.025
Frequency=0.00347222 MHz, x1 = 0.2493 | 2.37 ± 0.024
Frequency=0.00347222 MHz, x1 = 0.3029 | 2.29 ± 0.023
Frequency=0.00347222 MHz, x1 = 0.3845 | 2.115 ± 0.021
Frequency=0.00347222 MHz, x1 = 0.4985 | 1.84 ± 0.019
Frequency=0.00347222 MHz, x1 = 0.6954 | 1.46 ± 0.015
Frequency=0.00347222 MHz, x1 = 0.9013 | 1.19 ± 0.012
Frequency=0.00347222 MHz, x1 = 1 | 1.123 ± 0.011
Frequency=0.004 MHz, x1 = 0.0463 | 1.37 ± 0.024
Frequency=0.004 MHz, x1 = 0.0987 | 2.05 ± 0.025
Frequency=0.004 MHz, x1 = 0.1449 | 2.31 ± 0.024
Frequency=0.004 MHz, x1 = 0.1859 | 2.45 ± 0.025
Frequency=0.004 MHz, x1 = 0.2493 | 2.37 ± 0.024
Frequency=0.004 MHz, x1 = 0.3029 | 2.29 ± 0.023
Frequency=0.004 MHz, x1 = 0.3845 | 2.115 ± 0.021
Frequency=0.004 MHz, x1 = 0.4985 | 1.84 ± 0.019
Frequency=0.004 MHz, x1 = 0.6954 | 1.46 ± 0.015
Frequency=0.004 MHz, x1 = 0.9013 | 1.19 ± 0.012
Frequency=0.004 MHz, x1 = 1 | 1.123 ± 0.011
Frequency=0.00446429 MHz, x1 = 0.0463 | 1.37 ± 0.024
Frequency=0.00446429 MHz, x1 = 0.0987 | 2.05 ± 0.025
Frequency=0.00446429 MHz, x1 = 0.1449 | 2.31 ± 0.024
Frequency=0.00446429 MHz, x1 = 0.1859 | 2.45 ± 0.025
Frequency=0.00446429 MHz, x1 = 0.2493 | 2.37 ± 0.024
Frequency=0.00446429 MHz, x1 = 0.3029 | 2.29 ± 0.023
Frequency=0.00446429 MHz, x1 = 0.3845 | 2.115 ± 0.021
Frequency=0.00446429 MHz, x1 = 0.4985 | 1.84 ± 0.019
Frequency=0.00446429 MHz, x1 = 0.6954 | 1.46 ± 0.015
Frequency=0.00446429 MHz, x1 = 0.9013 | 1.19 ± 0.012
Frequency=0.00446429 MHz, x1 = 1 | 1.123 ± 0.011
Frequency=0.005 MHz, x1 = 0.0463 | 1.37 ± 0.024
Frequency=0.005 MHz, x1 = 0.0987 | 2.05 ± 0.025
Frequency=0.005 MHz, x1 = 0.1449 | 2.31 ± 0.024
Frequency=0.005 MHz, x1 = 0.1859 | 2.45 ± 0.025
Frequency=0.005 MHz, x1 = 0.2493 | 2.37 ± 0.024
Frequency=0.005 MHz, x1 = 0.3029 | 2.29 ± 0.023
Frequency=0.005 MHz, x1 = 0.3845 | 2.115 ± 0.021
Frequency=0.005 MHz, x1 = 0.4985 | 1.84 ± 0.019
Frequency=0.005 MHz, x1 = 0.6954 | 1.46 ± 0.015
Frequency=0.005 MHz, x1 = 0.9013 | 1.19 ± 0.012
Frequency=0.005 MHz, x1 = 1 | 1.123 ± 0.011
Frequency=0.005454 MHz, x1 = 0.0463 | 1.37 ± 0.024
Frequency=0.005454 MHz, x1 = 0.0987 | 2.05 ± 0.025
Frequency=0.005454 MHz, x1 = 0.1449 | 2.31 ± 0.024
Frequency=0.005454 MHz, x1 = 0.1859 | 2.45 ± 0.025
Frequency=0.005454 MHz, x1 = 0.2493 | 2.37 ± 0.024
Frequency=0.005454 MHz, x1 = 0.3029 | 2.29 ± 0.023
Frequency=0.005454 MHz, x1 = 0.3845 | 2.116 ± 0.021
Frequency=0.005454 MHz, x1 = 0.4985 | 1.84 ± 0.019
Frequency=0.005454 MHz, x1 = 0.6954 | 1.46 ± 0.015
Frequency=0.005454 MHz, x1 = 0.9013 | 1.19 ± 0.012
Frequency=0.005454 MHz, x1 = 1 | 1.123 ± 0.011
Frequency=0.006 MHz, x1 = 0.0463 | 1.37 ± 0.024
Frequency=0.006 MHz, x1 = 0.0987 | 2.05 ± 0.025
Frequency=0.006 MHz, x1 = 0.1449 | 2.31 ± 0.024
Frequency=0.006 MHz, x1 = 0.1859 | 2.45 ± 0.025
Frequency=0.006 MHz, x1 = 0.2493 | 2.37 ± 0.024
Frequency=0.006 MHz, x1 = 0.3029 | 2.29 ± 0.023
Frequency=0.006 MHz, x1 = 0.3845 | 2.116 ± 0.021
Frequency=0.006 MHz, x1 = 0.4985 | 1.84 ± 0.019
Frequency=0.006 MHz, x1 = 0.6954 | 1.46 ± 0.015
Frequency=0.006 MHz, x1 = 0.9013 | 1.19 ± 0.012
Frequency=0.006 MHz, x1 = 1 | 1.123 ± 0.011
Frequency=0.00652174 MHz, x1 = 0.0463 | 1.37 ± 0.024
Frequency=0.00652174 MHz, x1 = 0.0987 | 2.05 ± 0.025
